{"source": "paper PMC9054634", "about": "(RSC Advances, 2020)"}
{"target": "E. coli β-glucuronidase (GUS) (Escherichia coli, UniProt P05804)", "sequence (P05804 whole entry)": "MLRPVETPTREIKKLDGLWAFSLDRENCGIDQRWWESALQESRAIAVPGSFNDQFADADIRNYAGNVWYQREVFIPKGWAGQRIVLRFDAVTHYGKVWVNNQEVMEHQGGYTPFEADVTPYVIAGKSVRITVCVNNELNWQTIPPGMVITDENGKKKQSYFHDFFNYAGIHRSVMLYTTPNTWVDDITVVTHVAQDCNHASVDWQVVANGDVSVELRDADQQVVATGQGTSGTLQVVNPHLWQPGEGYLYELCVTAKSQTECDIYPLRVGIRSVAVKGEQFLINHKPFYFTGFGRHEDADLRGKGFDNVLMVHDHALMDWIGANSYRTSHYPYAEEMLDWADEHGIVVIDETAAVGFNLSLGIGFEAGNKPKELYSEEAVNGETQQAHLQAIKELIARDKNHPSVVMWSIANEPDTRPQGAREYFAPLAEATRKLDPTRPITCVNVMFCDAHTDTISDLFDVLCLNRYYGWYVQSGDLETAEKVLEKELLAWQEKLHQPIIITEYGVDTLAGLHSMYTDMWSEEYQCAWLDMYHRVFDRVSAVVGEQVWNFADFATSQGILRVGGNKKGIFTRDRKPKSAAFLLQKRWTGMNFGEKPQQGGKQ", "assay": "pNPG hydrolysis by purified GUS, UPLC-UV, Lineweaver-Burk kinetics", "format": "biochemical", "units": {"Ki": "µM"}}
{"compound": "C[C@]12CC[C@@H]3c4ccc(O)cc4CC[C@H]3[C@@H]1CC[C@@H]2O", "note": "[E2, Estradiol]", "Ki": 31.4}
{"compound": "C=CCc1ccc(O)c(-c2cc(CC=C)ccc2O)c1", "note": "[Mag, Magnolol]", "Ki": 16.6}
{"compound": "CN1CCN(CCCN2c3ccccc3Sc3ccc(C(F)(F)F)cc32)CC1", "note": "[TFP, Trifluoperazine]", "Ki": 56.9}
